Experimental data: paper PMC11315935, “Multi-layered heterochromatin interaction as a switch for DIM2-mediated DNA methylation” (Nature Communications, 2024)

Key:
[1] = test system: HP1; assay: Size-exclusion chromatography of DIM2-HP1 complex; format: binding, Neurospora Crassa; conditions: 1.0 µM DIM2 and/or 2.5 µM HP1, Superdex 200 increase 10/300 GL, pH 7.5
Protocol: For size-exclusion chromatography analysis, 400 µL of the sample mixture containing 1.0 µM DIM2 and/or 2.5 µM HP1 was loaded onto Superdex 200 increase 10/300 GL column (GE Healthcare) and eluted at a flow rate of 0.5 mL/min, in the buffer containing 20 mM Tris-HCl (pH 7.5), 100 mM NaCl, 5% glycerol, and 5 mM DTT. The proteins in each fraction were then visualized by SDS-PAGE.

[2] = test system: (CTA)12/(TAG)12 36-mer DNA duplex; assay: In vitro DNA methylation assay of DIM2 (WT or mutant); format: biochemical; set-up: DNA methylation activity: unit not given here; conditions: 30 min
[3] = target: DIM2, W261A/W581A; assay: ITC binding of H3K9me3 peptide, DIM2 W261A/W581A; set-up: species or system Neurospora Crassa; conditions: 7 °C, pH 7.5, NDB, no detectable binding
Protocol: (§1) ITC measurements were performed using a MicroCal iTC200 instrument (GE Healthcare). To measure the bindings between proteins and H3K9me3 peptide, 0.04–0.05 mM DIM2, WT or mutant (W261A, W581A, or W261A/W581A), DIM2 RFTS domain, or HP1, WT or mutant (W98A), was titrated with 0.5 mM histone peptide at 7 °C. Prior to the titration, both peptide and protein samples were subjected to overnight dialysis against buffer containing 20 mM Tris-HCl (pH 7.5), 100 mM NaCl, and 1 mM β-mercaptoethanol. Buffer to buffer titration was performed to ensure no abnormality of baseline. Analyses of all data were performed with MicroCal Origin software, fitted with single-site binding mode.

[4] = test system: DIM2, W261A; assay: ITC binding of H3K9me3 peptide, DIM2 W261A; set-up: species or system Neurospora Crassa
Protocol: as §1

[5] = test system: DIM2, W581A; assay: ITC binding of H3K9me3 peptide, DIM2 W581A; set-up: species or system Neurospora Crassa
Protocol: as §1

[6] = test system: DIM2; assay: In vitro DNA methylation assay: effect of HP1 and H3 peptides on DIM2 activity; format: biochemical, Neurospora Crassa; conditions: 36-mer DNA duplex, 1.0 µM peptide and/or 2 µM HP1
Protocol: In vitro DNA methylation assay was performed in a 20-µL reaction mixture. For the substrate specificity assay, the following DNA duplexes were used as substrates: CG DNA (Upper strand: 5’-[…]-3’), hemimethylated CG DNA (Upper strand: 5’-TAAATTTXGATTAATAAT-3’, X = 5-methylcytosine; Lower strand: 5’-[…] -3’), CHG DNA (Upper strand: 5’-[…]-3’), and CHH DNA (Upper strand: 5’-[…]-3’). The reaction mixture contains 0.25 µM DIM2, 1.0 µM DNA duplex, 1.0 µM synthesized H3K9me3 peptide (residues 1-24 of H3 plus a C-terminal tryptophan), 0.5 µM HP1, and 0.56 µM S-adenosyl-L-[methyl-^3H] methionine with a specific activity of 18 Ci/mmol (PerkinElmer) in buffer containing 50 mM Tris-HCl (pH 8.0), 100 mM NaCl, 0.05% β-mercaptoethanol, 5% glycerol, and 200 µg/mL BSA. For the rest of the DNA methylation assay, each reaction mixture contains 1.0 µM DIM2, […] methionine with a specific activity of 18 Ci/mmol (PerkinElmer) in buffer containing 50 mM Tris-HCl (pH 8.0), 100 mM NaCl, 0.05% β-mercaptoethanol, 5% glycerol, and 200 µg/mL BSA. In addition, 1.0 µM synthesized H3K9me3 or H3K9me0 peptide (residues 1-24 of H3 plus a C-terminal tryptophan) and/or 2 µM HP1 protein was included to evaluate the effect of H3 and HP1 regulation. The reaction mixture was incubated at 30 °C for 30 min, unless indicated otherwise, before being quenched by the addition of 5 µL of 10 mM cold SAM. After the reaction, 8 μL of the mixtures was loaded onto Hybond N nylon membrane (GE Healthcare), which was left to dry out at room temperature. The membrane was subsequently washed with 0.2 M ammonium bicarbonate (pH 8.2) two times (20 min per time), deionized water (20 min) once, and 95% ethanol (5 min) once. After air dried, the membrane carrying each sample was transferred into a vial containing 3 mL scintillation buffer (Fisher). The tritium scintillation was measured and recorded by a Beckman LS6500 counter. Each the reaction was repeated three times.

DIM2WT: Neurospora Crassa DIM2 (NCBI accession no. XP_959891.1) (residues 1-1242)
DIM2-HP1 complex formation (in words) [1]: co-migration
DNA methylation activity of DIM2 (in words) ([2]; 1.0 µM DIM2, 30 °C, pH 8.0): no detectable activity
DNA methylation activity ([2]; Fig. 1b, 1.0 µM DIM2, 1.0 µM DNA duplex, 0.56 µM [methyl-3H]SAM, 1.0 µM H3 peptide and/or 2 µM HP1, pH 8.0, 30 °C, tritium scintillation, replicate 1): -0.021
DNA methylation activity ([2]; Fig. 1b, 1.0 µM DIM2, 1.0 µM DNA duplex, 0.56 µM [methyl-3H]SAM, 1.0 µM H3 peptide and/or 2 µM HP1, pH 8.0, 30 °C, tritium scintillation, replicate 2): -0.01
DNA methylation activity ([2]; Fig. 1b, 1.0 µM DIM2, 1.0 µM DNA duplex, 0.56 µM [methyl-3H]SAM, 1.0 µM H3 peptide and/or 2 µM HP1, pH 8.0, 30 °C, tritium scintillation, replicate 3): -0.04
DNA methylation activity ([2]; Fig. 2g, in the presence of HP1 (2 µM) and H3_1-24K9me3 peptide (1.0 µM), 1.0 µM DIM2, 30 °C, pH 8.0, replicate 1): 20.908
DNA methylation activity ([2]; Fig. 2g, in the presence of HP1 (2 µM) and H3_1-24K9me3 peptide (1.0 µM), 1.0 µM DIM2, 30 °C, pH 8.0, replicate 2): 20.644
DNA methylation activity ([2]; Fig. 2g, in the presence of HP1 (2 µM) and H3_1-24K9me3 peptide (1.0 µM), 1.0 µM DIM2, 30 °C, pH 8.0, replicate 3): 18.328
DNA methylation activity ([2]; Fig. 5f, DNA binding-associated mutants, 1.0 µM DIM2, 1.0 µM DNA duplex, 30 °C, pH 8.0, replicate 1): 14.337
DNA methylation activity ([2]; Fig. 5f, DNA binding-associated mutants, 1.0 µM DIM2, 1.0 µM DNA duplex, 30 °C, pH 8.0, replicate 2): 13.213
DNA methylation activity ([2]; Fig. 5f, DNA binding-associated mutants, 1.0 µM DIM2, 1.0 µM DNA duplex, 30 °C, pH 8.0, replicate 3): 13.147
DNA methylation activity ([2]; Fig. 3h, in the presence of HP1 (2 µM) and H3_1-24K9me3 peptide (1.0 µM), 1.0 µM DIM2, 30 °C, pH 8.0, replicate 1): 22.922
DNA methylation activity ([2]; Fig. 3h, in the presence of HP1 (2 µM) and H3_1-24K9me3 peptide (1.0 µM), 1.0 µM DIM2, 30 °C, pH 8.0, replicate 2): 23.125
DNA methylation activity ([2]; Fig. 3h, in the presence of HP1 (2 µM) and H3_1-24K9me3 peptide (1.0 µM), 1.0 µM DIM2, 30 °C, pH 8.0, replicate 3): 22.99
DNA methylation activity ([2]; Fig. 6d, H3_1-24K9me3 binding-associated mutants, 1.0 µM DIM2, 1.0 µM DNA duplex, 30 °C, pH 8.0, replicate 1): 19.42
DNA methylation activity ([2]; Fig. 6d, H3_1-24K9me3 binding-associated mutants, 1.0 µM DIM2, 1.0 µM DNA duplex, 30 °C, pH 8.0, replicate 2): 16.017
DNA methylation activity ([2]; Fig. 6d, H3_1-24K9me3 binding-associated mutants, 1.0 µM DIM2, 1.0 µM DNA duplex, 30 °C, pH 8.0, replicate 3): 17.874

H31-24K9me3: synthesized H3K9me3 peptide (residues 1-24 of H3 plus a C-terminal tryptophan)
Kd [3]: NDB
Kd ([3]; listed as H3K9me3 peptide): complete abolishment
enhanced binding affinity vs WT DIM2 ([4]; W261A vs WT): ~ 2.3 fold
BAH1-H3K9me3 binding stronger than RFTS-H3K9me3 binding by ([4]; in the absence of DNA): ~ 24 fold
reduction of peptide-binding affinity vs WT DIM2 [5]: ~10 fold
effect on DNA methylation activity of DIM2 (in words) [6]: failed to activate DIM2 appreciably
